Like-named read-outs stand apart in the source and are kept apart here.
How the values were obtained:
human NaV1.7 = target: T1, human NaV1.7 (Homo sapiens, UniProt Q15858); assay: Patch voltage clamp electrophysiology assay (EP), NaV1.7; assay type: cell-based; details: HEK-293 cells stably expressing NaV1.7 with β1 subunit; whole-cell patch clamp, membrane potential −60 mV (inactivated state)
T1 construct: permanently transfected with an expression vector containing the full-length cDNA coding for the desired human sodium channel α-subunit; expressed in transfected cells; host or cells: HEK-293
T1 sequence (Q15858 1-1977 isoform Q15858-3): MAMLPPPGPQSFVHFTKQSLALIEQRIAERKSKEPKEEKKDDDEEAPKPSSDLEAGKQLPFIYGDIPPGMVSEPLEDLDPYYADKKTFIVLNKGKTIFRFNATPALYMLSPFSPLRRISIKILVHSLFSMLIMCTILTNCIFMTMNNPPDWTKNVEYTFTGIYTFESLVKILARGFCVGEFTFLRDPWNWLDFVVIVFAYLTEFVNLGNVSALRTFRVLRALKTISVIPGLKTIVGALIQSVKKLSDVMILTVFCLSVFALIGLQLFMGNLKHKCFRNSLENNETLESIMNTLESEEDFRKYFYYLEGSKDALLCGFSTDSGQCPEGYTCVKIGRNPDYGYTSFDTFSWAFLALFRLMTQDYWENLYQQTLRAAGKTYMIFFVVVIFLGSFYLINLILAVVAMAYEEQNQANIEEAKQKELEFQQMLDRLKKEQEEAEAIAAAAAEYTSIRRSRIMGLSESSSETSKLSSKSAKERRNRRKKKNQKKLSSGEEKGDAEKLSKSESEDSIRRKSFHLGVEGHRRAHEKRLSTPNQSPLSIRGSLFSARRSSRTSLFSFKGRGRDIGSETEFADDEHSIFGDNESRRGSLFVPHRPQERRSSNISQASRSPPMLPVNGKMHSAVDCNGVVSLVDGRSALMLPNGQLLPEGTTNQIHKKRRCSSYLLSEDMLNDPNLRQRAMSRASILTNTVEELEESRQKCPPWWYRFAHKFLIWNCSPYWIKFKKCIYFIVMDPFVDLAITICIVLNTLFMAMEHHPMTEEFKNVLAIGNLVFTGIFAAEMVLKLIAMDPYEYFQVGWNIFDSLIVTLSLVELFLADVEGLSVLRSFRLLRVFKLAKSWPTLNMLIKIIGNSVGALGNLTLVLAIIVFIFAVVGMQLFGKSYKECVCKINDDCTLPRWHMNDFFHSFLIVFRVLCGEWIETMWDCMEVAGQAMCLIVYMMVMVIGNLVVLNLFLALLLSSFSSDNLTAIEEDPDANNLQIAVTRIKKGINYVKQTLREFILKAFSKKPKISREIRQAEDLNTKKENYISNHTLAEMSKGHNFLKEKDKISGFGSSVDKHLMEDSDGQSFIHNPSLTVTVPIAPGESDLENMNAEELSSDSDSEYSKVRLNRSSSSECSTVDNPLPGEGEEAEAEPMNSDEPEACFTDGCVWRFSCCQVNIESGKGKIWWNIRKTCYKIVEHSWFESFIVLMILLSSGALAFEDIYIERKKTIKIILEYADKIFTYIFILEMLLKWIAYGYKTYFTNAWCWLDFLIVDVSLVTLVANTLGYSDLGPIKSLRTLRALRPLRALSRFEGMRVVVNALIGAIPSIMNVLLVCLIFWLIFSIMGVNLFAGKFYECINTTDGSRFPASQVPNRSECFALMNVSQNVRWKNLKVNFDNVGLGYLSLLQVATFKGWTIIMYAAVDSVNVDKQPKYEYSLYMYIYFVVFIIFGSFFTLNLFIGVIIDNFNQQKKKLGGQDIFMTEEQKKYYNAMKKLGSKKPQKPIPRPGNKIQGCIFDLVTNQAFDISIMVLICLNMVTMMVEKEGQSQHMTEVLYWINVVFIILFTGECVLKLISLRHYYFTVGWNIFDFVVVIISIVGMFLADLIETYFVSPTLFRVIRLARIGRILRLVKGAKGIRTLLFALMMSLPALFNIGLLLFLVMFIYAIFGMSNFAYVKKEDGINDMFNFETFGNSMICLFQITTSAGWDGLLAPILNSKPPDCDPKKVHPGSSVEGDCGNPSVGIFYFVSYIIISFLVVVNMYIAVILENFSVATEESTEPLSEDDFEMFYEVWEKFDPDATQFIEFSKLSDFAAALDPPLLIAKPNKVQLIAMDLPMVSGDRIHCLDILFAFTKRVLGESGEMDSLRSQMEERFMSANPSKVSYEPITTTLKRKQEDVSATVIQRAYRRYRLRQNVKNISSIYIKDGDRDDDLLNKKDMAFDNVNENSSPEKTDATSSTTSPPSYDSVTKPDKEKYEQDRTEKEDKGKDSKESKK
T1 sequence (Q07699 19-218 partner): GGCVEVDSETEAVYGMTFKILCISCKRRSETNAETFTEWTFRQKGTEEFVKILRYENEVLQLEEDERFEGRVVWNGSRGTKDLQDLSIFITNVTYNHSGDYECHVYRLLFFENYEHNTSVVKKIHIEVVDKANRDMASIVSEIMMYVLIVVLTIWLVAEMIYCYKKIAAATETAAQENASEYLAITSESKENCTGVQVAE
Procedure: (§1) The following patch voltage clamp electrophysiology studies were performed on representative compounds of the invention using human embryonic kidney cells (HEK), permanently transfected with an expression vector containing the full-length cDNA coding for the desired human sodium channel α-subunit, grown in culture media containing 10% FBS, 1% PSG, and 0.5 mg/mL G418 at 37° C. with 5% CO2. […] NaV1.7 and NaV1.5 cDNAs (NM_002977 and AC137587; SCN5A, respectively) were stably expressed in HEK-293 cells. The β1 subunit was coexpressed in both the NaV1.7 and NaV1.5 cell lines.
(§2) Sodium currents were measured using the patch clamp technique in the whole-cell configuration using either a PatchXpress automated voltage clamp or manually using an Axopatch 200B (Axon Instruments) or Model 2400 (A-M systems) amplifier. The manual voltage clamp protocol was as follows: Borosilicate glass micropipettes were fire-polished to a tip diameter yielding a resistance of 2-4 Mohms in the working solutions. The pipette was filled with a solution comprised of: 5 mM NaCl, 10 mM CsCl, 120 mM CsF, 0.1 mM CaCl2, 2 mM MgCl2, 10 mM HEPES, 10 mM EGTA; and adjusted to pH 7.2 with CsOH. The external solution had the following composition: 140 mM NaCl, 5 mM KCl, 2 mM CaCl2, 1 mM MgCl2, 10 mM HEPES; and adjusted to pH 7.4 with NaOH. In some studies, the external sodium was reduced by equimolar replacement with choline. Osmolarity in the CsF internal and NaCl external solutions was adjusted to 300 mOsm/kg and 310 mOsm/kg with glucose, respectively. All recordings were performed at ambient temperature in a bath chamber with a volume of 150 μL. Control sodium currents were measured in 0.5% DMSO. Controls and representative compounds of the invention were applied to the recording chamber through a 4-pinch or 8-pinch valve bath perfusion system manufactured by ALA Scientific Instruments.
(§3) Series resistance compensation was applied (60-80%). […] All statistics in this study are given as mean±SD.
(§4) The membrane potential was maintained at a voltage where inactivation of the channel is complete (which was −60 mV for both NaV1.7 and NaV1.5). The voltage is then stepped back to a very negative (Vhold=[…]) voltage for 20 ms and then a test pulse is applied to quantify the compound block. […] The percent decrease in sodium current following wash-on of compound was taken as the percent block of sodium channels.

NaV1.5 = target: T2, NaV1.5 (Homo sapiens, UniProt Q14524); assay: Patch voltage clamp electrophysiology assay (EP), NaV1.5; assay type: cell-based; details: HEK-293 cells stably expressing NaV1.5 with β1 subunit, whole-cell patch clamp, membrane potential −60 mV (inactivated state)
T2 construct: permanently transfected with an expression vector containing the full-length cDNA coding for the desired human sodium channel α-subunit; expressed in transfected cells; host or cells: HEK-293
T2 sequence (Q14524 whole entry): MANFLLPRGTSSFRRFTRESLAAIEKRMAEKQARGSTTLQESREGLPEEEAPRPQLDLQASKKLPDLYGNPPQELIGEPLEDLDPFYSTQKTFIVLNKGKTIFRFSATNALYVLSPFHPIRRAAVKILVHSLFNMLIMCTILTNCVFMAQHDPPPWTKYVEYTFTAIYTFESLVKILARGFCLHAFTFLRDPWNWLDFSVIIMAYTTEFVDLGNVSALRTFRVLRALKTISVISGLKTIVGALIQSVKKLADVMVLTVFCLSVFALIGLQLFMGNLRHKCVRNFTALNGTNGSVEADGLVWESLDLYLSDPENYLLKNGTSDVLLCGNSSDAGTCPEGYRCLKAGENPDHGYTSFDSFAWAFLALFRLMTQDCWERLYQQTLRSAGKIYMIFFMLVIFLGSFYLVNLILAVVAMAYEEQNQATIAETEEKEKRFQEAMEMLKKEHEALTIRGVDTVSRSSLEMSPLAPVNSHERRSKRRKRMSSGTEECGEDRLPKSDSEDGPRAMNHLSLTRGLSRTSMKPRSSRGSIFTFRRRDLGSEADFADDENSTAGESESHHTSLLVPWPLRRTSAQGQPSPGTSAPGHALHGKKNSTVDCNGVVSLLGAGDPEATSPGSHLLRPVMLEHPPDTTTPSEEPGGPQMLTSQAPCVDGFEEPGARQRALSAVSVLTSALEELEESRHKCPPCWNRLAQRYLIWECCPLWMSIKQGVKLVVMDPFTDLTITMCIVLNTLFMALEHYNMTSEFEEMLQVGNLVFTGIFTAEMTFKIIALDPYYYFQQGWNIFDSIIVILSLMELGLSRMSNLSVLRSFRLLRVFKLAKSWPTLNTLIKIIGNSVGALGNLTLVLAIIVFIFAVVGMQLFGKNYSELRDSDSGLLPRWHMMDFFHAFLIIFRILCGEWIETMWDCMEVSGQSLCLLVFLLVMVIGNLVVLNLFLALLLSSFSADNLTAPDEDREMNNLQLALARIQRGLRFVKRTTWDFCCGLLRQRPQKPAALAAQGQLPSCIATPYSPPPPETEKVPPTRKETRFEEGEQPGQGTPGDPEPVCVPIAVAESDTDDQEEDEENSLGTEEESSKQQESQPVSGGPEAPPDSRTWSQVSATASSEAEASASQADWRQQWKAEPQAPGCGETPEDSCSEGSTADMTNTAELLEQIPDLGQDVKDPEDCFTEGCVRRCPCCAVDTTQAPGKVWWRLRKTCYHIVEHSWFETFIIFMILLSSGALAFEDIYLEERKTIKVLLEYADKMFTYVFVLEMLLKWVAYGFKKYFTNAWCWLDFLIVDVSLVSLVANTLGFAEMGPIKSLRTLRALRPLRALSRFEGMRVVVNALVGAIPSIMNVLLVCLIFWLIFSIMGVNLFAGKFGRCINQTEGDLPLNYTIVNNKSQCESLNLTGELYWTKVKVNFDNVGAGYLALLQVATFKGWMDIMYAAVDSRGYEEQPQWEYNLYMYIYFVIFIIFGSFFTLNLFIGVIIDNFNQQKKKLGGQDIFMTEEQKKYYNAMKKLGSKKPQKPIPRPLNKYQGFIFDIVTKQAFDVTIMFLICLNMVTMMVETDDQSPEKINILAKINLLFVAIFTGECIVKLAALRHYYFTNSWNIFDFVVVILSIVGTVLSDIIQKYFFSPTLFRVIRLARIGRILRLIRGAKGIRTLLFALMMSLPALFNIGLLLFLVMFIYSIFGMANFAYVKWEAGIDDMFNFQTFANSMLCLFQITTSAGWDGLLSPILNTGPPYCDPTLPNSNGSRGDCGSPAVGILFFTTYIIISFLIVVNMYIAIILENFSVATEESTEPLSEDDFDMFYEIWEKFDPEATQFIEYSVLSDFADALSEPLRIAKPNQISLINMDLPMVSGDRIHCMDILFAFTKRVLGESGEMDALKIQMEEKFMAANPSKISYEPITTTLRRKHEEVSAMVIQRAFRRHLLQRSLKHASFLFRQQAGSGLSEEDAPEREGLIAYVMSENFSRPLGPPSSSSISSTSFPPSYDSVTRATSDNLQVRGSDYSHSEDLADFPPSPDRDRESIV
Procedure: as §1, §2, §3, §4

hNav1.7 = target: T3, hNav1.7 (Homo sapiens, UniProt Q15858); assay: Tritiated compound binding (LBA) to membranes from cells expressing hNav1.7 and the β1 subunit, competitive binding; details: competitive binding vs 100 pM [3H]compound, 18 h, room temperature, membranes with hNav1.7 and β1 subunit
T3 construct: expressed in transfected cells
T3 sequence (Q15858 1-1977 isoform Q15858-3): as the sequence (Q15858 1-1977 isoform Q15858-3) above
T3 sequence (Q07699 19-218 partner): as the sequence (Q07699 19-218 partner) above
Outline: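 Membranes from cells expressing hNav1.7 with β1 were incubated 18 h at room temperature with 100 pM tritiated formula (I) compound and increasing test compound, in 100 mM NaCl, 20 mM Tris HCl pH 7.4, 0.01% BSA.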

[1] = human, HEK-293 cells stably expressing human NaV1.5 with β1 subunit, pH 7.4

Row | IC50 (human NaV1.7) [nM] | IC50 (hNav1.7) [nM] | SMILES | IC50 (NaV1.5; read-out: Nav1.5) [nM] | IC50 (NaV1.5; [1]) [nM]
1 | 300 | 7.7 | C[C@H]1CCN(C(=O)c2cc(C3CC3)c(OCC3(C)CN([C@H](c4ccccc4)c4cc(Cl)cc(Cl)c4)C3)cc2F)[C@@H]1C(=O)O (single isomer, unassigned) [Example 115] | 11000 | –
2 | 580 | 12 | C[C@H]1CCN(C(=O)c2cc(C3CC3)c(OCC3(C)CN([C@@H](c4ccccc4)c4cc(Cl)cc(Cl)c4)C3)cc2F)[C@@H]1C(=O)O (single isomer, unassigned) [Example 116] | 15000 | –
3 | 510 | 23 | CC1(COc2cc(F)c(C(=O)N3C[C@H](F)C[C@H]3C(=O)O)cc2C2CC2)CN([C@@H](c2ccccc2)c2cc(Cl)cc(Cl)c2)C1 (single isomer, unassigned) [Example 117] | 8500 | –
4 | 880 | 18 | C[C@H]1CCN(C(=O)c2cc(C3CC3)c(OCC3CCN([C@@H](c4cc(Cl)cc(Cl)c4)C(F)(F)F)CC3)cc2F)[C@@H]1C(=O)O (single isomer, unassigned) [Example 121b] | 17000 | –
5 | 2300 | 120 | C[C@H](c1cc(Cl)cc(Cl)c1)N1CCC(C#N)(COc2cc(F)c(C(=O)N3C[C@H](F)C[C@H]3C(=O)O)cc2C2CC2)CC1 (single isomer, unassigned) [Example 126a] | 10000 | –
6 | 1400 | 100 | C[C@@H](c1cc(Cl)cc(Cl)c1)N1CCC(C#N)(COc2cc(F)c(C(=O)N3C[C@H](F)C[C@H]3C(=O)O)cc2C2CC2)CC1 (single isomer, unassigned) [Example 126b] | 10000 | –
7 | 330 | 24 | C[C@@H](c1cc(Cl)cc(Cl)c1)N1CCC(C)(COc2cc(F)c(C(=O)N3C[C@H](F)C[C@H]3C(=O)O)cc2C2CC2)CC1 (single isomer, unassigned) [Example 132a] | 17000 | –
8 | 430 | 24 | C[C@H](c1cc(Cl)cc(Cl)c1)N1CCC(C)(COc2cc(F)c(C(=O)N3C[C@H](F)C[C@H]3C(=O)O)cc2C2CC2)CC1 (single isomer, unassigned) [Example 132b] | – | ≥ 30000
9 | 3700 | 570 | C[C@@]1(COc2cc(F)c(C(=O)N3CCC[C@H]3C(=O)O)cc2C2CC2)CCN(Cc2cc(F)cc(Cl)c2)C1 (single isomer, unassigned) [Example 137a] | 15000 | –
10 | 2400 | 310 | C[C@]1(COc2cc(F)c(C(=O)N3CCC[C@H]3C(=O)O)cc2C2CC2)CCN(Cc2cc(F)cc(Cl)c2)C1 (single isomer, unassigned) [Example 137b] | – | ≥ 30000
11 | 170 | 14 | O=C(O)[C@@H]1C[C@@H](F)CN1C(=O)c1cc(C2CC2)c(OCC2CCN([C@H](c3cc(Cl)cc(Cl)c3)C(F)(F)F)CC2)cc1F (single isomer, unassigned) [Example 140a] | 2700 | –
12 | 160 | 21 | O=C(O)[C@@H]1C[C@@H](F)CN1C(=O)c1cc(C2CC2)c(OCC2CCN([C@@H](c3cc(Cl)cc(Cl)c3)C(F)(F)F)CC2)cc1F (single isomer, unassigned) [Example 140b] | 3700 | –
13 | 780 | 58 | CC1(C)CCN(C(=O)c2cc(C3CC3)c(OCC34CC5CC(CC(C5)C3)C4)cc2F)C1C(=O)O (stereo in doubt) [Example 151, (2R)-1-[4-(1-adamantylmethoxy)-5-cyclopropyl-2-fluoro-benzoyl]-3,3-dimethyl-pyrrolidine-2-carboxylic acid] | 5200 | –
14 | 830 | 59 | O=C(O)C1COCN1C(=O)c1cc(C2CC2)c(OCC23CC4CC(CC(C4)C2)C3)cc1F (stereo in doubt) [Example 154, (4R)-3-[4-(1-adamantylmethoxy)-5-cyclopropyl-2-fluoro-benzoyl]oxazolidine-4-carboxylic acid] | 16000 | –
15 | 240 | 25 | O=C(O)[C@@H]1[C@H]2C[C@H]2CN1C(=O)c1cc(C2CC2)c(OCC23CC4CC(CC(C4)C2)C3)cc1F (stereo in doubt) [Example 171, 3-[4-(1-adamantylmethoxy)-5-cyclopropyl-2-fluoro-benzoyl]-3-azabicyclo[3.1.0]hexane-4-carboxylic acid] | 9000 | –

The remaining lines, values behind:

Row | SMILES | IC50 (human NaV1.7) [nM] | IC50 (hNav1.7) [nM] | IC50 (NaV1.5; read-out: Nav1.5) [nM] | IC50 (NaV1.5; [1]) [nM]
16 | CC1(COc2cc(F)c(C(=O)N[C@H](C(=O)O)C3CC3)cc2C2CC2)CN([C@@H](c2ccccc2)c2cc(Cl)cc(Cl)c2)C1 (single isomer, unassigned) [Example 114] | 1700 | 20 | 13000 | –
17 | O=C(N[C@H](C(=O)O)C1CC1)c1cc(C2CC2)c(OCC2CCN([C@H](c3ccccc3)c3cc(Cl)cc(Cl)c3)CC2)cc1F (single isomer, unassigned) [Example 118] | 760 | 21 | 15000 | –
18 | O=C(N[C@H](C(=O)O)C1CC1)c1cc(C2CC2)c(OCC2CCN([C@@H](c3ccccc3)c3cc(Cl)cc(Cl)c3)CC2)cc1F (single isomer, unassigned) [Example 119] | 850 | 15 | 9400 | –
19 | C[C@H]1CCN(C(=O)c2cc(C3CC3)c(OCC3CCN([C@H](c4cc(Cl)cc(Cl)c4)C(F)(F)F)CC3)cc2F)[C@@H]1C(=O)O (single isomer, unassigned) [Example 121a] | 880 | 20 | 13000 | –
20 | O=C(O)[C@@H]1CCCN1C(=O)c1cc(C2CC2)c(OCC2CCN([C@H](c3cc(Cl)cc(Cl)c3)C(F)(F)F)CC2)cc1F (single isomer, unassigned) [Example 123a] | 490 | 48 | 7100 | –
21 | O=C(O)[C@@H]1CCCN1C(=O)c1cc(C2CC2)c(OCC2CCN([C@@H](c3cc(Cl)cc(Cl)c3)C(F)(F)F)CC2)cc1F (single isomer, unassigned) [Example 123b] | 410 | 31 | 7700 | –
22 | O=C(O)[C@@H]1C[C@@H](F)CN1C(=O)c1cc(C2CC2)c(OCC2CCN([C@@H](c3ccccc3)c3cc(Cl)cc(Cl)c3)CC2)cc1F (single isomer, unassigned) [Example 125] | 380 | 16 | 6200 | –
23 | C[C@H]1OCN(C(=O)c2cc(C3CC3)c(OCC3CCN([C@H](c4cc(Cl)cc(Cl)c4)C(F)(F)F)CC3)cc2F)[C@@H]1C(=O)O (single isomer, unassigned) [Example 138a] | 300 | 6.9 | 13000 | –
24 | C[C@H]1OCN(C(=O)c2cc(C3CC3)c(OCC3CCN([C@@H](c4cc(Cl)cc(Cl)c4)C(F)(F)F)CC3)cc2F)[C@@H]1C(=O)O (single isomer, unassigned) [Example 138b] | 320 | 7.6 | 11000 | –
25 | O=C(O)[C@@H]1CCCN1C(=O)c1cc(C2CC2)c(OC[C@H]2CCN(C(c3ccccc3)c3ccccc3)C2)cc1F (single isomer, unassigned) [Example 139a] | 5000 | 650 | 25000 | –
26 | O=C(O)[C@@H]1CCCN1C(=O)c1cc(C2CC2)c(OC[C@@H]2CCN(C(c3ccccc3)c3ccccc3)C2)cc1F (single isomer, unassigned) [Example 139b] | 7100 | 800 | 22000 | –
27 | O=C(NC(C(=O)O)C1CC1)c1cc(C2CC2)c(COc2cc(Cl)cc(OC(F)(F)F)c2)cc1F (stereo in doubt) [Example 120, (R)-2-(4-((3-chloro-5-(trifluoromethoxy)phenoxy)methyl)-5-cyclopropyl-2-fluorobenzamido)-2-cyclopropylacetic acid] | 290 | 27 | 14000 | –

Reference: patent US10125098B2, “Therapeutic compounds and methods of use thereof” (GENENTECH, INC., priority 2014, dated 2018)
